Here are results for four compounds from PubChem BioAssay AID1745844 (Carcinogenic Potency Database (CPDB), 2022).

Active and inactive are the calls of the source. The rule behind the calls is not given here.

For the data set, the system named is rodent lifetime carcinogenesis bioassay, tumor incidence TD50. The data set can be described thus: chronic cancer bioassays in animals – CPDB, compiled studies (AID 1745844).

On to `COc1cc2c(cc1N)oc1ccccc12`, for which the TD50 was 33.1 mg/kg/day (rat, strain Fischer, females, in feed, site: any site (literature study), lesion: malignant tumor, dosed 75 weeks, study length 75 weeks); 43.9 mg/kg/day (rat, strain Fischer, females, in feed, site: external auditory canal, lesion: squamous-cell carcinoma, dosed 75 weeks, study length 75 weeks); 205 mg/kg/day (rat, strain Fischer, females, in feed, site: mammary gland, lesion: adenocarcinoma, dosed 75 weeks, study length 75 weeks); 25.7 mg/kg/day (rat, strain Fischer, females, in feed, site: urinary bladder, lesion: several types, types named in the paper, dosed 75 weeks, study length 75 weeks); 43.9 mg/kg/day (rat, strain Fischer, females, in feed, site: urinary bladder, lesion: transitional-cell carcinoma, dosed 75 weeks, study length 75 weeks); 78.2 mg/kg/day (rat, strain Fischer, males, in feed, site: any site (literature study), lesion: malignant tumor, dosed 75 weeks, study length 75 weeks). Besides, the TD50 reads like this: (rat, strain Fischer, males, in feed, site: external auditory canal, lesion: squamous-cell carcinoma, dosed 75 weeks, study length 75 weeks) 78.2 mg/kg/day; (rat, strain Fischer, males, in feed, site: urinary bladder, lesion: several types, types named in the paper, dosed 75 weeks, study length 75 weeks) 26.4 mg/kg/day; (rat, strain Fischer, males, in feed, site: urinary bladder, lesion: transitional-cell carcinoma, dosed 75 weeks, study length 75 weeks) 78.2 mg/kg/day; (rat, strain Sprague-Dawley, females, in feed, site: any site (literature study), lesion: malignant tumor, dosed 75 weeks, study length 75 weeks) 25.7 mg/kg/day; (rat, strain Sprague-Dawley, females, in feed, site: external auditory canal, lesion: squamous-cell carcinoma, dosed 75 weeks, study length 75 weeks) 61.9 mg/kg/day; (rat, strain Sprague-Dawley, females, in feed, site: mammary gland, lesion: adenocarcinoma, dosed 75 weeks, study length 75 weeks) 61.9 mg/kg/day. For the same compound, the TD50 is 43.9 mg/kg/day (rat, strain Sprague-Dawley, females, in feed, site: urinary bladder, lesion: several types, types named in the paper, dosed 75 weeks, study length 75 weeks); 205 mg/kg/day (rat, strain Sprague-Dawley, females, in feed, site: urinary bladder, lesion: transitional-cell carcinoma, dosed 75 weeks, study length 75 weeks); 78.2 mg/kg/day (rat, strain Sprague-Dawley, males, in feed, site: any site (literature study), lesion: malignant tumor, dosed 75 weeks, study length 75 weeks); 164 mg/kg/day (rat, strain Sprague-Dawley, males, in feed, site: kidney, lesion: squamous-cell carcinoma, dosed 75 weeks, study length 75 weeks); 164 mg/kg/day (rat, strain Sprague-Dawley, males, in feed, site: urinary bladder, lesion: transitional-cell papilloma, dosed 75 weeks, study length 75 weeks); 43.9 mg/kg/day (rat, strain Wistar, females, in feed, site: any site (literature study), lesion: malignant tumor, dosed 75 weeks, study length 75 weeks). Further, the TD50 (rat, strain Wistar, females, in feed, site: liver, lesion: cystadenoma, dosed 75 weeks, study length 75 weeks) came to 205 mg/kg/day; the TD50 (rat, strain Wistar, females, in feed, site: mammary gland, lesion: adenocarcinoma, dosed 75 weeks, study length 75 weeks) was 97.7 mg/kg/day; the TD50 (rat, strain Wistar, females, in feed, site: urinary bladder, lesion: several types, types named in the paper, dosed 75 weeks, study length 75 weeks) is 43.9 mg/kg/day; the TD50 (rat, strain Wistar, females, in feed, site: urinary bladder, lesion: transitional-cell carcinoma, dosed 75 weeks, study length 75 weeks) was 97.7 mg/kg/day; the TD50 (rat, strain Wistar, males, in feed, site: any site (literature study), lesion: benign tumor, dosed 84 weeks, study length 84 weeks) was determined as 53.3 mg/kg/day; the TD50 (rat, strain Wistar, males, in feed, site: any site (literature study), lesion: malignant tumor, dosed 75 weeks, study length 75 weeks) is 26.4 mg/kg/day. For the same compound, the TD50 is 78.2 mg/kg/day (rat, strain Wistar, males, in feed, site: external auditory canal, lesion: squamous-cell carcinoma, dosed 75 weeks, study length 75 weeks); 164 mg/kg/day (rat, strain Wistar, males, in feed, site: kidney, lesion: squamous-cell carcinoma, dosed 75 weeks, study length 75 weeks); 35.2 mg/kg/day (rat, strain Wistar, males, in feed, site: urinary bladder, lesion: several types, types named in the paper, dosed 75 weeks, study length 75 weeks); 78.2 mg/kg/day (rat, strain Wistar, males, in feed, site: urinary bladder, lesion: transitional-cell carcinoma, dosed 75 weeks, study length 75 weeks). The carcinogen call by setting is: (rat, strain Wistar, males, in feed, site: any site (literature study), lesion: malignant tumor, dosed 84 weeks, study length 84 weeks) “positive”; (rat, strain Wistar, males, in feed, site: urinary bladder, lesion: several types, types named in the paper, dosed 84 weeks, study length 84 weeks) “positive”.
For the compound `c1ccc2sc(SSc3nc4ccccc4s3)nc2c1`, the TD50 was 1380 mg/kg/day (inactive) (mouse, strain B6AKF1, females, oral dosing, site: any site (literature study), lesion: several types, types named in the paper, dosed 76 weeks, study length 76 weeks); 511 mg/kg/day (inactive) (mouse, strain B6AKF1, males, oral dosing, site: any site (literature study), lesion: several types, types named in the paper, dosed 76 weeks, study length 76 weeks); 1130 mg/kg/day (inactive) (mouse, strain B6AKF1, males, oral dosing, site: lung, lesion: adenoma, dosed 76 weeks, study length 76 weeks); 432 mg/kg/day (inactive) (mouse, strain B6C3F1, females, oral dosing, site: any site (literature study), lesion: several types, types named in the paper, dosed 76 weeks, study length 76 weeks); 669 mg/kg/day (inactive) (mouse, strain B6C3F1, females, oral dosing, site: lung, lesion: adenoma, dosed 76 weeks, study length 76 weeks); 401 mg/kg/day (inactive) (mouse, strain B6C3F1, males, oral dosing, site: any site (literature study), lesion: several types, types named in the paper, dosed 76 weeks, study length 76 weeks). The TD50 (mouse, strain B6C3F1, males, oral dosing, site: liver, lesion: hepatoma, dosed 76 weeks, study length 76 weeks) is 621 mg/kg/day (inactive). Further, the carcinogen call is “negative (inactive)” (mouse, strain B6AKF1, females, oral dosing, site: liver, lesion: hepatoma, dosed 76 weeks, study length 76 weeks); “negative (inactive)” (mouse, strain B6AKF1, females, oral dosing, site: lung, lesion: adenoma, dosed 76 weeks, study length 76 weeks); “negative (inactive)” (mouse, strain B6AKF1, males, oral dosing, site: liver, lesion: hepatoma, dosed 76 weeks, study length 76 weeks); “negative (inactive)” (mouse, strain B6C3F1, females, oral dosing, site: liver, lesion: hepatoma, dosed 76 weeks, study length 76 weeks); “negative (inactive)” (mouse, strain B6C3F1, males, oral dosing, site: lung, lesion: several types, types named in the paper, dosed 76 weeks, study length 76 weeks).
As for `NNc1nc(-c2ccc([N+](=O)[O-])o2)cs1`, the TD50 (mouse, strain Swiss, females, in feed, site: any site (literature study), lesion: several types, types named in the paper, dosed 46 weeks, study length 55 weeks) stood at 7.57 mg/kg/day; the TD50 (mouse, strain Swiss, females, in feed, site: forestomach, lesion: squamous-cell papilloma, dosed 46 weeks, study length 55 weeks) was 16.4 mg/kg/day; the TD50 (rat, strain Sprague-Dawley, females, in feed, site: any site (literature study), lesion: several types, types named in the paper, dosed 46 weeks, study length 57 weeks) was 2.83 mg/kg/day; the TD50 (rat, strain Sprague-Dawley, females, in feed, site: kidney, lesion: several types, types named in the paper, dosed 46 weeks, study length 57 weeks) was 36.8 mg/kg/day; the TD50 (rat, strain Sprague-Dawley, females, in feed, site: liver, lesion: cystadenoma, dosed 46 weeks, study length 66 weeks) amounted to 295 mg/kg/day; the TD50 (rat, strain Sprague-Dawley, females, in feed, site: mammary gland, lesion: adenocarcinoma, dosed 46 weeks, study length 57 weeks) is 7.79 mg/kg/day. Moreover, the TD50 is, setting by setting: (rat, strain Sprague-Dawley, females, in feed, site: mammary gland, lesion: adenocarcinoma, dosed 46 weeks, study length 66 weeks) 10.9 mg/kg/day; (rat, strain Sprague-Dawley, females, in feed, site: mammary gland, lesion: adenofibroma, dosed 46 weeks, study length 57 weeks) 25.2 mg/kg/day; (rat, strain Sprague-Dawley, females, in feed, site: mammary gland, lesion: several types, types named in the paper, dosed 46 weeks, study length 57 weeks) 2.83 mg/kg/day; (rat, strain Sprague-Dawley, females, in feed, site: mammary gland, lesion: several types, types named in the paper, dosed 46 weeks, study length 66 weeks) 3.66 mg/kg/day; (rat, strain Sprague-Dawley, females, in feed, site: salivary gland, lesion: adenocarcinoma, dosed 46 weeks, study length 66 weeks) 145 mg/kg/day.
As for `C[C@@H]1C[C@]2(O[C@@H]2C)C(=O)O[C@@H]2CCN(C)C/C=C(/COC(=O)[C@]1(C)O)C2=O`, the TD50 (rat, strain ACI, females, in drinking water, site: liver, lesion: hemangioendothelial sarcoma, dosed 68 weeks, study length 68 weeks) is 1.52 mg/kg/day; the TD50 (rat, strain ACI, females, in drinking water, site: liver, lesion: liver-cell adenoma, dosed 68 weeks, study length 68 weeks) was 4.13 mg/kg/day; the TD50 (rat, strain ACI, females, in drinking water, site: liver, lesion: several types, types named in the paper, dosed 68 weeks, study length 68 weeks) was 1.52 mg/kg/day; the TD50 (rat, strain ACI, males, in drinking water, site: liver, lesion: hemangioendothelial sarcoma, dosed 58 weeks, study length 58 weeks) was 4.78 mg/kg/day; the TD50 (rat, strain ACI, males, in drinking water, site: liver, lesion: liver-cell adenoma, dosed 58 weeks, study length 58 weeks) was 1.16 mg/kg/day; the TD50 (rat, strain ACI, males, in drinking water, site: liver, lesion: several types, types named in the paper, dosed 58 weeks, study length 58 weeks) was 0.662 mg/kg/day.

A word on the TD50: it is the dose at which the toxic effect under study appears in half of the subjects.
